The values that follow come from US20090203605A1, “Methods For Treating A Condition Characterized By Dysfunction In Protein Homeostasis” (THE SCRIPPS RESEARCH INSTITUTE, priority 2008, published 2009).

Experiment [1] concerns L444P GC. Type of experiment: cell-based, human. The settings on record: 0.8 μM; 24, 72 and 120 h. Here is the method:
The partial restoration of L444P GC proteostasis was further supported by analysis of the distinct glycosylation pattern associated with GC trafficking through the Golgi compartment. Ron et al., Hum Mol Genet. 14: 2387-2398, 2005; Zimmer et al., J Pathol 188: 407-414, 1999. Fibroblasts grown in the presence or absence of celastrol were lysed at the indicated times and the glycosylation of L444P GC was analyzed by Western blot after treatment with endoglycosidase H (endo H) (FIG. 1B). Digestion with PNGase F confirms that the high MW endo H resistant band was glycosylated (FIG. 8). A low molecular weight band corresponding to the endo H-sensitive, partially glycosylated GC that has not left the ER is typically detected after endo H treatment. Ron et al., Hum Mol Genet. […]
Western blot analyses. […] Total cell protein was determined with Micro BCA assay reagent (Pierce, Rockford, Ill.) and each sample was diluted to the same protein concentration. […] The western blot bands of the endoH treated samples were quantified by Java Image processing and analysis software from the NIH (http://rsb.info.nih.gov/ij/).
Western blot. […] Total cell protein was measured using the Micro BCA assay reagent. […]

Experiment [2] concerns N370S/84GG GC. Put plainly: GC activity assay in N370S/84GG GC fibroblasts. The settings on record: diltiazem 10 μM, 5-day treatment. Type of experiment: cell-based, human. As for the experimental part: Enzyme activity assays. The intact cell GC activity assay has been previously described. Sawkar et al., Proc Natl Acad Sci USA 99: 15428-15433, 2002. Briefly, cells were plated into 48-well assay plates (500 μl per well). After cell attachment, the media was replaced by media containing small molecules. Media was changed every 3 days. […] The monolayers were washed by DPBS. The reaction was started by the addition of 150 μl of 3 mM 4-methylumbelliferyl β-D-glucopyranoside in 0.2 M acetate buffer (pH 4.0) to each well, followed by incubation at 37° C. for 1 hour to 7 hours. CBE was used as a control to evaluate the extent of nonspecific GC activity. […] Liberated 4-methylumbelliferone was measured (excitation 365 nm, emission 445 nm) with a SpectraMax Gemini plate reader (Molecular Device, Sunnyvale, Calif.). The lysed cell GC activity assay has been previously described. Sawkar et al., Proc Natl Acad Sci USA 99: 15428-15433, 2002. […] Total cell protein was measured using the Micro BCA assay reagent (Pierce, Rockford, Ill., #23235). 30 μg of total cell protein was assayed for the GC activity in 100 μl of 0.1 M acetate buffer (pH 5.0) containing 3 mM 4-methylumbelliferyl β-D-glucopyranoside in the presence of 0.15% Triton X-100 (v/v, Fisher) and 0.15% taurodeoxycholate (w/v, Calbiochem). CBE was used as a control to evaluate the extent of nonspecific GC activity. […]

For experiment [3], the system named is ΔF508 CFTR. Put plainly: Trafficking of ΔF508 CFTR to the plasma membrane. Type of experiment: cell-based. The settings on record: diltiazem treatment.
The target in experiment [4] is T1, Cerezyme, a recombinant version of WT GC (Homo sapiens, UniProt P04062, R534H).
T1 sequence (P04062 40-536 R534H): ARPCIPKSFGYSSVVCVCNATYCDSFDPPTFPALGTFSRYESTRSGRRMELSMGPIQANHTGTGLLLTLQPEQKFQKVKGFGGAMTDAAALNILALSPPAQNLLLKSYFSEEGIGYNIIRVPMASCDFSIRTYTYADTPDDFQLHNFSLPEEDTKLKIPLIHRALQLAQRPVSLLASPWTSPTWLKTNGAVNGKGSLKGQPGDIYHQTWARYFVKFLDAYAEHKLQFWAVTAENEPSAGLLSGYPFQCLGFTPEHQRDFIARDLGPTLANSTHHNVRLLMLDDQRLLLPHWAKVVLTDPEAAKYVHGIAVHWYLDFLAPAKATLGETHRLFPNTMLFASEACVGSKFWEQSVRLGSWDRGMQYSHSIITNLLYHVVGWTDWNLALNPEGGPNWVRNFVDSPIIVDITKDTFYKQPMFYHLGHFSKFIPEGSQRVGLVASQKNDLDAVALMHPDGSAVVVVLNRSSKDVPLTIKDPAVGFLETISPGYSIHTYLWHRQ
The settings on record: 0.01 to 1000 μM.

The test system of experiment [5] is Ca^2+ channel. The note with it: previously reported, Li et al., J Med Chem 35: 3246-3253, 1992; read-out: Ca^2+ channel blocker IC50; cited from earlier work.

The structures appear in SMILES notation. Residues, ends and D or L forms follow the SMILES beside them. *: point of attachment. Cbz = O=C(OCc1ccccc1)*

On to `CC(C)C[C@@H](C=O)NC(=O)[C@H](CC(C)C)NC(=O)[C@H](CC(C)C)NC(=O)OCc1ccccc1` [MG-132] (Cbz-Leu-Leu-Leu-aldehyde), for which, in experiment [1], the “endo H-resistant (post-ER) GC glycoform band” value is “striking increase”.

As usually defined, the IC50 is the concentration needed to halve the response being measured. On to `COc1ccc([C@@H]2Sc3ccccc3N(CCN(C)C)C(=O)[C@@H]2OC(C)=O)cc1.Cl` [diltiazem, Diltiazem hydrochloride], for which, in experiment [2], the “N370S/84GG GC activity as % of cellular WT GC activity” value was “≈ 36%”. For the same compound, the “trafficking of ΔF508 CFTR to the plasma membrane” value in experiment [3] was “Nor does diltiazem treatment increase the trafficking”. The “inhibition of Cerezyme” value in experiment [4] is “lack of inhibition”. Also, in experiment [5], the 50% inhibitory concentration (IC50) is 980 nM.
